Assay results taken from patent US12257248B2, “Bronchodilators for treating obstructive lung disease” (University of South Florida, priority 2020, dated 2025).
Where two headings read alike, the source gives them in different places.

Key:
D9-HASM cells = experiment: [Ca2+]i stimulation screening assay (Fluo-4) in D9-HASM cells; format: cell-based, human; details: for EC50: Fluo-4, mean±SE from 4-8 experiments, read-out: EC50 ([Ca^2+]i stimulation); for Emax / Rmax (% ionomycin): maximal [Ca2+]i response normalized to ionomycin 2.0 μM; for Emax: read-out: Rmax (% ionomycin)
Protocol: Cultured D9 telomerase reverse transcriptase immortalized HASM (D9-HASM) cells were utilized for the [Ca^2+]i screening assays. Cells were seeded onto 96 well plates and loaded with Fluo-4 direct. The [Ca^2+]i responses to multiple concentrations of potential agonists were determined as a measure of receptor activation. Control cells were exposed to the non-specific ionophore ionomycin at 2.0 μM (a maximal effective concentration, FIG. 4). Results from TAS2R agonist studies were normalized to the ionomycin response in order to compare the maximal responses (Rmax) between agonists. The concentration-response data were fit to a four component logistic regression model (sigmoid curve) using iterative non-linear regression methods to determine the EC50 and Rmax. The structures of the previously identified agonist termed T5-1, and 18 derivatives (denoted as T5-2 through T5-19) are shown in FIG. 2. Representative [Ca^2+]i responses to these compounds are shown in FIG. 4, and mean results from multiple concentration-response experiments are shown in FIG. 3. Table 1 summarizes the results in terms of potency (EC50) and efficacy (Rmax), with statistical comparisons to T5-1.

primary HASM cells = experiment: HASM cell relaxation by magnetic twisting cytometry (MTC); format: cell-based, human; details: for Relaxation (% basal): primary HASM cells passages 5-7, non-asthmatic donor, MTC, single concentration 500 μM; for rank of HASM cell relaxation response (FIG. 7): 500 μM, added at 60 seconds, 200-400 cells per compound
Protocol: FIG. 7 depicts HASM cell relaxation responses to selected compounds. Compounds were studied at a concentration of 500 μM and were added to the culture media at the 60 second time point (arrow). Results are from measurements of 200-400 cells per compound. *, P<0.01 vs the T5-1 reference response.
To correlate the [Ca^2+]i responses of the compounds to relevant physiologic function, we turned to measurements of single-cell mechanics in HASM cells using magnetic twisting cytometry (MTC) as previously described. Here, cultured primary HASM cells at passages 5-7 derived from a non-asthmatic donor lung were utilized. […] Positive controls (FIG. 6) included the β-agonists albuterol (partial agonist), formoterol (full agonist) and forskolin, which increases cAMP by direct activation of adenylyl cyclase.

## C=C(C)c1c(C(=C)C)c2cccnc2c2ncccc12 [T5-17, 5,6-di(prop-1-en-2yl)-1,10-phenanthroline]
D9-HASM cells; Homo sapiens
  EC50: 25.5 ± 7.06 µM
  Emax: 113 ± 19%
Primary HASM cells
  Relaxation (% basal): 13.5 ± 2.59 % basal

## O=[N+]([O-])c1cc2cccnc2c2ncccc12 [T5-13, 5-Nitro-1,10-phenanthroline]
D9-HASM cells; Homo sapiens
  EC50: 36 ± 3.85 µM
  Emax: 134 ± 11.9%
Primary HASM cells
  Relaxation (% basal): 12.8 ± 2.00 % basal

## c1cnc2c(c1)ccc1cccnc12 [T5-1, 1,10-Phenanthroline, reference compound]
D9-HASM cells; Homo sapiens
  EC50: 29.7 ± 5.57 µM
  Emax: 149 ± 10.2%
Primary HASM cells
  Relaxation (% basal): 10.8 ± 2.17 % basal

## Cc1ccnc2c1ccc1c(C)ccnc12 [T5-6, 4,7-Dimethyl-1,10-phenanthroline]
D9-HASM cells; Homo sapiens
  EC50: 1.39 ± 0.19 µM
  Emax: 147 ± 16.7%
Primary HASM cells
  Relaxation (% basal): 5.3 ± 1.95 % basal

## Cc1ccnc(-c2cc(C)ccn2)c1 [T5-19, 4,4′-Dimethyl-2,2′-dipyridyl]
D9-HASM cells
  EC50: 60.6 ± 9.13 µM
  Rmax (% ionomycin): 58.9 ± 2.95 % ionomycin

## COc1c(OC)c2cccnc2c2ncccc12 [T5-15, 5,6-Dimethoxy-1,10-phenanthroline]
D9-HASM cells; Homo sapiens
  EC50: 7.48 ± 0.78 µM
  Emax: 127 ± 16.1%
Primary HASM cells
  rank of HASM cell relaxation response (FIG. 7): then 15
  Relaxation (% basal): 26.7 ± 1.65 % basal

## O=C1C(=O)c2ccccc2-c2ccccc21 [T5-18, 9,10-Phenanthrenequinone]
D9-HASM cells; Homo sapiens
  EC50: 5.08 ± 1.37 µM
  Emax: 153 ± 5.2%
Primary HASM cells
  rank of HASM cell relaxation response (FIG. 7): then 18 and 11
  Relaxation (% basal): 20.0 ± 2.00 % basal

## c1cnc2ccc3ncccc3c2c1 [T5-4, 4,7-Phenanthroline]
D9-HASM cells; Homo sapiens
  Emax: 15.4 ± 3.37%
Primary HASM cells
  Relaxation (% basal): 15.3 ± 1.48 % basal

## O=C1C(=O)c2cccnc2-c2ncccc21 [T5-8, 1,10-Phenanthroline-5,6-dione]
D9-HASM cells; Homo sapiens
  EC50: 0.12 ± 0.05 µM
  Emax: 199 ± 20.2%
Primary HASM cells
  rank of HASM cell relaxation response (FIG. 7): greatest degree of relaxation
  Relaxation (% basal): 50.2 ± 2.79 % basal

## CCc1c(CC)c2cccnc2c2ncccc12 [T5-16, 5,6-Diethyl-1,10-phenanthroline]
D9-HASM cells; Homo sapiens
  EC50: 4.05 ± 0.8 µM
  Emax: 183 ± 14.7%

## c1ccc(-c2ccccn2)nc1 [T5-2, 2,2′-Bipyridine]
D9-HASM cells; Homo sapiens
  Emax: 16.4 ± 4.48%
Primary HASM cells
  Relaxation (% basal): −3.2 ± 1.67 % basal

## c1cnc2c(c1)c1nccnc1c1cccnc12 [T5-14, Pyrazino[2,3-f][1,10]phenanthroline]
D9-HASM cells; Homo sapiens
  EC50: 147 ± 2.26 µM
  Emax: 34.5 ± 15.1%
Primary HASM cells
  Relaxation (% basal): 6.1 ± 1.67 % basal

## Clc1cc2cccnc2c2ncccc12 [T5-11, 5-Chrolo-1,10-phenanthroline]
D9-HASM cells
  EC50: 11.1 ± 2 µM
  Rmax (% ionomycin): 183 ± 7.3 % ionomycin
Primary HASM cells
  rank of HASM cell relaxation response (FIG. 7): then 18 and 11
  Relaxation (% basal): 18.0 ± 2.13 % basal

## Cc1c(C)c2cccnc2c2ncccc12 [T5-7, 5,6-Dimethyl-1,10-phenanthroline]
D9-HASM cells; Homo sapiens
  EC50: 2.05 ± 0.2 µM
  Emax: 163 ± 36.4%
Primary HASM cells
  Relaxation (% basal): 9.0 ± 2.19 % basal

## Brc1cc2cccnc2c2ncccc12 [T5-10, 5-Bromo-1,10-phenanthroline]
D9-HASM cells; Homo sapiens
  EC50: 4.35 ± 0.71 µM
  Emax: 182 ± 25.7%
Primary HASM cells
  Relaxation (% basal): 14.4 ± 1.93 % basal

## Nc1cc2cccnc2c2ncccc12 [T5-9, 1,10-Phenanthrolin-5-amine]
D9-HASM cells; Homo sapiens
  EC50: 4.6 ± 0.42 µM
  Emax: 176 ± 14.2%
Primary HASM cells
  Relaxation (% basal): 7.2 ± 1.95 % basal

## c1cnc2c(c1)ccc1ncccc12 [T5-3, 1,7-Phenanthroline]
D9-HASM cells; Homo sapiens
  EC50: 24.9 ± 4.58 µM
  Emax: 121 ± 16.7%
Primary HASM cells
  Relaxation (% basal): 34.8 ± 1.36 % basal

## Cc1ccc2ccc3ccc(C)nc3c2n1 [T5-5, 2,9-Dimethyl-1,10-phenanthroline]
D9-HASM cells; Homo sapiens
  EC50: 33.3 ± 6.4 µM
  Emax: 143 ± 13.1%
Primary HASM cells
  Relaxation (% basal): 12.0 ± 1.47 % basal

## Cc1cc2cccnc2c2ncccc12 [T5-12, 5-Methyl-1,10-phenanthroline]
D9-HASM cells; Homo sapiens
  EC50: 12.1 ± 1.99 µM
  Emax: 181 ± 24.6%
